According to patent US6677309B1, “Anti-cancer drug aldehyde conjugate drugs with enhanced cytotoxicity compounds, compositions and methods” (University Technology Corporation, priority 1997, dated 2004):

Legend:
[1] = tested on: MCF-7 cells; assay: In vitro cytotoxicity, colony formation by crystal violet assay, MCF-7; details: for fold less toxic than the next conjugate: EPIF versus DAUNF, DAUNF versus DOXF, both sensitive (MCF-7) and resistant (MCF-7/ADR) breast cancer cells
Method: (§1) The term IC50 as used herein refers to the concentration of drug which inhibits cell growth by 50%, i.e., 50% of cells are viable at the IC50 concentration relative to a no-drug control.
(§2) Cells were incubated with drug for 3 h in RPMI (Roswell Park Memorial Institute) 1640 media containing 10% fetal bovine serum and 1% DMSO. Plates, were developed using the crystal violet assay. […] In all cases percent survival was determined by the extent of colony formation six days after drug treatment.
(§3) All tissue culture materials were obtained from Gibco Life Technologies (Grand Island, N.Y.) unless otherwise stated. MCF-7 breast cancer cells were obtained from American Type Culture Collection (Rockville, Md.). […] Both cell lines were maintained in vitro by serial culture in phenol red-free RPMI Media 1640 supplemented with 10% fetal bovine serum (Gemini Bio-Products, Calbasas, Calif.), L-glutamine (2 mM), HEPES buffer (10 mM), penicillin (100 units/mL), and streptomycin (100 μg/mL). […] Cells were maintained at 37° C. in a humidified atmosphere of 5% CO2 and 95% air.
(§4) Cells were dissociated with trypsin-EDTA, counted, and suspended in growth media to a concentration of 5×10^3 cells/mL. Cell suspensions were dispensed in 200 μL aliquots into 96-well tissue culture plates. Plates were then incubated for 24 h at 37° C. in a humidified atmosphere of 5% CO2 and 95% air. The media was replaced with 180 μL of growth media prior to addition of the cytotoxic agents.
(§5) Concentrations were then corrected by measuring the solution absorbance at 480 nm (ε=11,500/mole anthracycline). The solutions were then serially diluted in DMSO to give a series of 100× working concentration solutions. For each concentration, the 100× solution was diluted 1:10 in serum-free RPMI Media 1640. 20 μL of the resulting […] solution was immediately added to the appropriate lane. Additionally, one lane was treated with 20 μL of 10% DMSO in serum-free RPMI (no drug) and one lane replaced with 200 μL of 1.5 M Tris buffer (no cells). The cells were incubated at 37° C. for 3 h. The drug solutions were removed and 200 μL of fresh growth media was added to each well.
(§6) The extent of colony formation was determined by use of a crystal violet staining assay (Gilles, R. J. et al. (1986), “Determination of cell number in monolayer cultures,” Anal. Biochem. 159:109-113; Reile, H. et al. (1990), “Computerized determination of growth kinetic curves and doubling times from cells in microcultures,” Anal. Biochem. 187:262-267). […] The cells were then stained with 75 μL of 0.1% crystal violet in deionized water for 30 min. […] The plates were blotted dry and 200 μL of 70% ethanol in water was added to each well to solublize the dye. The plates were stored at 4° C. until solubilization was complete (about 4 h). The optical density of each well was measured on an ELISA plate reader at 588 nm. Relative colony sizes were determined by comparison of the drug treated lanes to the control lanes.
(§7) MCF-7 breast cancer cells were obtained from American Type Culture Collection (Rockville, Md.). MCF-7/ADR adriamycin resistant breast cancer cells were a gift of Dr. William W. Wells (Michigan State University). Both cell lines were maintained in vitro by serial culture in phenol red-free RPMI Media 1640 supplemented with 10% fetal bovine serum (Gemini Bio-Products, Calbasas, Calif.), L-glutamine (2 mM), HEPES buffer ([…]), penicillin (100 units/mL), and streptomycin (100 μg/mL). […] Cells were maintained at 37° C. in a humidified atmosphere of 5% CO2 and 95% air.
1640 media containing 10% fetal bovine serum. The resulting 90% media/10% DMSO solutions (v/v) were incubated at 37° C. for 6h.

[2] = tested on: MCF-7/ADR cells; assay: In vitro cytotoxicity, colony formation by crystal violet assay, MCF-7/ADR; details: for fold higher cytotoxicity against MCF-7/ADR cells relative to the parent drug: relative to the respective parent drug
Method: as §1, §2, §3, §4, §5, §6, §7
These were then diluted 10× with autoclaved Millipore water.

For `COc1cccc2c1C(=O)c1c(O)c3c(c(O)c1C2=O)CC(O)(C(=O)CO)CC3OC1CC2C(OCN3CN2COC2C(C)OC(OC4C[C@](O)(C(=O)CO)Cc5c(O)c6c(c(O)c54)C(=O)c4c(OC)cccc4C6=O)CC23)C(C)O1` (stereo partly shown) [EPIF], the “fold less toxic than the next conjugate” value [1] was “approximately 7 fold”, the “IC50 fold higher than a fresh solution” value ([2]; MCF-7/ADR, after 20 h in 90% H2O/10% DMSO at 37° C. or 20 h in DMSO at ambient temperature) was 5 fold and the “fold more toxic to resistant cells with respect to epidoxorubicin, conjugate in equilibrium with its hydrolysis products” value ([2]; MCF-7/ADR, hydrolysed equilibrium mixture) was “greater than 25 fold”. For the same compound, the “fold higher cytotoxicity against MCF-7/ADR cells relative to the parent drug” value [2] was “greater than 120 fold”.
For `COc1cccc2c1C(=O)c1c(O)c3c(c(O)c1C2=O)C[C@@](O)(C(C)=O)C[C@@H]3O[C@H]1C[C@H]2[C@H](OCN2CN2CO[C@@H]3[C@H](C)O[C@@H](O[C@H]4C[C@](O)(C(C)=O)Cc5c(O)c6c(c(O)c54)C(=O)c4c(OC)cccc4C6=O)C[C@@H]32)[C@H](C)O1` [DAUNF, bis(3′-N-(3′-N,4′-O-methylenedaunorubicinyl))methane], the “fold less toxic than the next conjugate” value [1] was “approximately 7 fold”, the IC50 ([1]; read-out: IC50 Values, MCF-7, 3 h drug incubation in RPMI 1640, 10% fetal bovine serum, 1% DMSO, colony formation six days after treatment, fresh drug solution) was 4 nM and the “times more cytotoxic against the MCF-7 cell line than the parent drug” value ([1]; relative to daunorubicin and doxorubicin, respectively) was 7 times. For the same compound, the “fold more toxic to MCF-7 cells than the parent drug” value ([1]; relative to the respective parent drug) was 7 fold, the IC50 ([2]; read-out: IC50 Values, MCF-7-ADR, 3 h drug incubation in RPMI 1640, 10% fetal bovine serum, 1% DMSO, colony formation six days after treatment, fresh drug solution) was 5 nM and the “fold higher cytotoxicity against MCF-7/ADR cells relative to the parent drug” value [2] was 200 fold.
